We go through 15 molecules from paper PMC11592675, “Förster Resonance Energy Transfer Measurements in Living Bacteria for Interaction Studies of BamA with BamD and Inhibitor Identification” (Cells, 2024).

Values joined by “and” are separate entries in the source; they are usually repeats but may differ in a detail not shown here. Equal values may be shown once. “Also recorded” adds a separate entry of the source.

One data set deals with BamA. As to conditions: no specific interaction site known; cited from earlier work. The text has this:
Resistance against known antibiotics is progressively spreading. Therefore, new antibacterial entities are urgently needed. According to the WHO, new antibiotics against gram-negative bacteria are in particular need. Common mechanisms of antibiotic resistance in gram-negative bacteria include changes in membrane and cell-wall permeability, biofilm formation, the production of efflux pumps and beta-lactamases, as well as mutation of typical targets. […] The β-barrel assembly ...

In a further data set the test system is outer membrane. Conditions: cited from earlier work. From the text:
Resistance against known antibiotics is progressively spreading. Therefore, new antibacterial entities are urgently needed. […] The β-barrel assembly ... || The interaction between BamA and BamD is essential for the correct function of the BAM complex. BamE has been reported to stabilize the interaction between BamA and BamD [29]. In this work, BamE was not overexpressed alongside the fluorophore-labeled BamA and BamD fusion proteins. It is therefore unclear to what extent chromosomal-encoded BamE stabilized the complex between fluorophore-labelled BamA and BamD. It is also possible that the interaction measured between BamA and BamD was not affected by BamE at all, due to the low amount of BamE present in comparison to the plas ...

The test system of data set [1] is interaction between BamA and BamD. As to conditions: yeast two hybrid high throughput screening; cited from earlier work. The text has this: (§1) Resistance against known antibiotics is progressively spreading. Therefore, new antibacterial entities are urgently needed. […] The β-barrel assembly ...
The next data set concerns gram-negative bacteria. As to conditions: in vitro; cited from earlier work.
Description: as §1

Data set [2] concerns the target mNeonGreen-BamA (N-terminal fusion of mNeonGreen to BamA) (E. coli) (UniProt P0A940). Kind of data set: FRET or BRET; flow cytometry (three channels) of living E. coli BL21 co-expressing the mNeonGreen (donor) and mScarlet-I (acceptor) fusions from one plasmid; cells washed with PBS; binding model (law of mass action) fitted to DFRET and relative concentrations with Ka app, z and Fmax all as free parameters; apparent; five replicates on each of three days. For orientation: BRET reads energy transfer from a luciferase to a nearby fluorophore.

For data set [3], the target named is BamA-mNeonGreen (C-terminal fusion of mNeonGreen to BamA) (E. coli) (UniProt P0A940). The description is as above.
Another data set deals with BamA–BamD interaction. Kind of data set: FRET-based determination of apparent affinity of BamA, BamD and their variants / FRET pairs in living E. coli cells. It counts as cell-based. As to conditions: BamA-mNeonGreen–BamD-mScarlet-I, n = 5 biological replicates (Figure 3c). The text has this:
E. coli Stellar (F−, endA1, supE44, thi-1, recA1, relA1, gyrA96, phoA, Φ80d lacZΔ M15, Δ(lacZYA-argF) U169, Δ(mrr-hsdRMS-mcrBC), ΔmcrA, λ−) was used for plasmid construction. E. coli BL21 (B, F^−, gal, dcm, Ion, hsdSB(rB^− mB^−), [malB^+]K-12(λ^S)) was used for expression of all fusion proteins and subsequent flow cytometric analysis. Plasmids were constructed by ligation free cloning using the InFusion™ cloning kit (Clonetech, San Jose, CA, USA) according to the manufacturer’s instructions, based on plasmid backbones described earlier. Details on the determinants and the construction of each of the used plasmids is given in the Supplementary Information (Supplementary Table S1 and Supplementary Text S1). Oligonucleotides used in their constructions are listed in Supplementary Table S2. Single-point mutations were introduced with the InFusion™ cloning kit. Oligonucleotides used are listed in Supplementary Table S2.
(§2) At the start of each experiment, E. coli BL21 cells were transformed with the corresponding plasmids, spread onto lysogeny broth-miller (LB)-agar plates with 50 µg/mL kanamycin (≥750 I.U./mg) or carbenicillin (purity: ≥88%) and grown over night. It turned out to be crucial to use freshly transformed cells for each experiment. Keeping the cells on agar plates for more than two days or cryoconservation of the cells led to an increase in the variability of the determined parameters Ka^app., z and Fmax. The following day, after transformation of the cells, 1 mL of LB medium with 50 µg/mL of the corresponding antibiotic in a 48-well plate was inoculated with a single colony and cultivated overnight (16 h) at 37 °C and 200 rpm. For protein production, M9 mineral medium was used, in which glucose was substituted by 1% (m/m) glycerol (purity: ≥99%) as the carbon source. A quantity of 200 µL of M9 medium in a 96-well plate was inoculated with 2 µL of the overnight culture and cultivated at 28 °C and 200 rpm for 6 h. Then, gene expression was induced with 1 mM L-rhamnose (purity: ≥98%), and afterwards an additional 2 h of cultivation with 0.2% (m/V) arabinose (purity: ≥99%). Cells that carried a plasmid that only contained one promotor were only treated with the corresponding inductor. Following induction of gene expression, cells were cultivated for an additional 16 h at 28 °C and 200 rpm. Cells were subsequently washed with PBS three times and then directly analyzed by flow cytometry.
(§3) A FACS Aria III flow cytometer (BD Bioscience, Franklin Lages, NJ, USA) with a 70 microns nozzle was used to analyze all cells. A three-channel method was used to measure the donor channel (mNeonGreeen), the acceptor channel (mScarlet-I) and the FRET channel. To measure the mNeonGreen fluorescence, an excitation wavelength of 488 nm and emission wavelength filters of 530/30 nm (band-pass) and 502 nm (long-pass) were used. mScarlet-I fluorescence was excited at 561 nm and measured with emission wavelength filters of 610/20 nm (band-pass) and 600 nm (long-pass). The FRET channel was measured with an excitation wavelength of 488 nm and emission filters of 610/20 nm (band-pass) and 600 nm (long-pass). A maximum of 10,000 cells per second were analyzed. FACSDiva™ Software (BD Bioscience, Franklin Lages, NJ, USA, version 8.0) was used for gating data analysis. For cells only expressing one fluorophore, 50,000 cells per sample were analyzed. […] A total of 50,000 cells inside the Q2 gate were analyzed. Examples are shown in Supplementary Figure S2. Cells at the edge of the plot were excluded during calculation of DFRET values and relative donor/acceptor concentrations.
Data points of all cells inside the analysis gate (Q2), as described in 2.4, were exported as FCS files using FACSDiva™ Software (BD Bioscience, Franklin Lages, NJ, USA, version 8.0). A custom Python program employing the FlowKit was subsequently used to convert the FCS formatted data into tab-delimited txt format. […]

Another data set deals with Pseudomonas aeruginosa. As to conditions: cited from earlier work. The text has this:
Mori et al. identified a peptide sequence (FIRL) that was highly conserved across BamD homologues in a wide variety of gram-negative bacteria. […] When the peptide was identified by Mori et al., no crystal structure of the BAM complex was available. When we located the amino acids of the FIRL peptide in the crystal structure of BamD, it turned out that only two of the four amino acids, R97 and L98, appeared to interact with BamA at site 2 (Figure 3c). The sidec ... || The interaction between BamA and BamD is essential for the correct function of the BAM complex. BamE has been reported to stabilize the interaction between BamA and BamD [29]. In this work, BamE was not overexpressed alongside the fluorophore-labeled BamA and BamD fusion proteins. It is therefore unclear to what extent chromosomal-encoded BamE stabilized the complex between fluorophore-labelled BamA and BamD. It is also possible that the interaction measured between BamA and BamD was not affected by BamE at all, due to the low amount of BamE present in comparison to the plas ...

For data set [4] the following is noted: M9 medium or PBS; not soluble at concentrations above 1 mM. The procedure:
Peptides (RFIRLN and […]) were synthesized by Genicbio with a purity of >95%. For treatment with the peptides, cells were grown as described above. […] Cells not treated with the peptide were also incubated in water for 3 h and used as a control for all experiments involving the peptides.

The test system of data set [5] is interaction between BamA and BamD (BamA-mNeonGreen and BamD-mScarlet-I). Kind of data set: FRET-based BamA–BamD interaction assay in living E. coli cells (flow cytometry), peptide treatment. It counts as cell-based. Conditions: for Ka^app. of the BamA–BamD interaction after peptide treatment: cells incubated 3 h in water, z and Fmax kept constant, n = 5 biological replicates, untreated control in the RFIRLN experiment Ka^app. = 3.08 × 10^−4; for inhibition of the interaction between BamA and BamD (in words): living bacterial cells, 500 µM and 2.5 mM peptide, 3 h in water. As for the experimental part: as §2, §3
Data points of all cells inside the analysis gate (Q2), as described in 2.4, were exported as FCS files using FACSDiva™ Software (BD Bioscience, Franklin Lages, NJ, USA, version 8.0). A custom Python program employing the FlowKit was subsequently used to convert the FCS formatted data into tab-delimited txt format.
Calculation of the DFRET and calculation of the relative concentration of the acceptor and donor from the flow cytometric data were performed as described by Hochreiter et al.. Cells with an RFU ≥ 250,000 were excluded from further analysis. Fitting of a binding model based on the law of mass actions to the data was also performed as described by Hochreiter et al.. The binding model used here (Equation (1)) fits the affinity (Ka^app), the stoichiometry (z) and the maximum FRET (Fmax) of a complex. To do so, the relative donor and acceptor concentration, as well as the DFRET, of a large number of cells with different expression levels has to be known. All other equations used for the calculations are described in Supplementary Text S1 for clarity. The FRET-efficiency of the donor- acceptor tandem, needed for the calculations, was determined by spectral unmixing according to Alexeeva et al. to be 0.43 [42]. […]
(In general: A flow cytometer gives signals particle by particle.)

A further data set relates to bacterial growth. The data set is described as follows: inhibition of bacterial growth by the peptides. It counts as cell-based, E. coli. Conditions: up to a concentration of 2.5 mM.
Setting [6] is: interaction site 1 variants, z and Fmax constant.
Setting [7] is: interaction site 2 variants, z = 1, Fmax = 0.36 constant.

On to `COC(=O)c1c(NC(=O)c2ccc([N+](=O)[O-])o2)sc2c1CCN(C(C)C)C2` [IMB-H4], for which the “binding to BamA” value in the data set on BamA is “binds to BamA”. Moreover, the “permeabilization of the OM” value in the data set with outer membrane was “shown to permeabilize the OM”. For the same molecule, in data set [1], the “inhibition of the interaction between BamA and BamD” value is “shown to inhibit the interaction between BamA and BamD”. The antibacterial activity result in the data set with gram-negative bacteria was “showed antibacterial activity in vitro”.
Regarding “BamD-mScarlet-I (C-terminal fusion of mScarlet-I to BamD) (from UniProt P0AC02 20-245) (natural protein)”, the stoichiometry N was 0.7 and 1.1 in data set [2]; 1.3 and 1.6 and 1.2 in data set [3].
With BamD^E187A: BamD variant, the “Ka^app.” value with BamA–BamD interaction (setting [6]) is on record as 7.82 × 10^−5.
As for BamD^L98A: BamD variant, in the data set with BamA–BamD interaction (setting [7]), the “Ka^app.” value is recorded as 6.58 × 10^−5.
Still for that read-out and setting: the figure for BamD^N99A: BamD variant is 6.57 × 10^−5; for BamD^R94A: BamD variant it is 5.47 × 10^−5.
On the same count and under the same terms, the figure for BamD^R97A: BamD variant is 6.23 × 10^−5.
With BamD^Y184A: BamD variant, in the data set with BamA–BamD interaction (setting [6]), the “Ka^app.” value is 5.27 × 10^−5.
BamD^Y184F: BamD variant: the “Ka^app.” value with BamA–BamD interaction (setting [6]) is recorded as 6.22 × 10^−5.
As for “BamD^Y185A: BamD variant, Y185 mutated to alanine”, in the data set on BamA–BamD interaction (setting [6]), the “Ka^app.” value is reported as 6.22 × 10^−5.
On the same count and under the same terms, the figure for E183A: BamD variant is 7.2 × 10^−5.
“FIRL [peptide derived from BamD, Mori et al]”: the “effect on outer membrane integrity / membrane permeability” value with outer membrane is “cause membrane permeability in treated cells; also recorded: shown to interfere with outer membrane integrity”. In the data set on Pseudomonas aeruginosa, the “bacteriostatic or bactericidal effects” value is on record as “did not show any bacteriostatic or bactericidal effects” and the potentiation of antibiotics result was “potentiated the effect of antibiotics; also recorded: potentiate the activity of antibiotics”.
Molecule “RFIRLN [variant of the FIRL peptide with extra N-terminal arginine and C-terminal asparagine; derived from BamD]” registered a solubility in [4] of at most 1000 µM. Further, the “Ka^app. of the BamA–BamD interaction after peptide treatment” value is 1.95 × 10^−4 in [5] (500 µM peptide) and 7.48 × 10^−5 in data set [5] (2.5 mM peptide). Moreover, the “inhibition of the interaction between BamA and BamD (in words)” value in data set [5] is “inhibit the interaction between BamA and BamD in a dose-dependent manner in the upper micromolar range; also recorded: a clear dose-dependent effect was observed; also recorded: shown to inhibit binding of BamA to BamD in living cells”. Moreover, in the data set with bacterial growth, the “inhibition of bacterial growth” value was “no inhibition of bacterial growth was detected up to a concentration of 2.5 mM”.
For the molecule V181A: BamD variant, the “Ka^app.” value with BamA–BamD interaction (setting [6]) was 6.66 × 10^−5.
On to VAEYYTER, for which the “Ka^app. of the BamA–BamD interaction after peptide treatment” value is 1.75 × 10^−4 in data set [5] (500 µM peptide) and 1.03 × 10^−4 in data set [5] (2.5 mM peptide). Moreover, the “inhibition of the interaction between BamA and BamD (in words)” value in data set [5] was “inhibit the interaction between BamA and BamD in a dose-dependent manner in the upper micromolar range; also recorded: a clear dose-dependent effect was observed; also recorded: able to disrupt the binding of BamD to BamA in living cells in high micromolar concentrations”. The “inhibition of bacterial growth” value in the data set on bacterial growth was “no inhibition of bacterial growth was detected up to a concentration of 2.5 mM”.

The stoichiometry N is the number of molecules, sites or subunits per partner or assembly. What is called solubility is the dissolved amount per volume that the medium holds. Read a high solubility as a readily soluble substance.
